Results on two compounds are retold here after patent US20120328602A1, “COMPOSITIONS AND METHODS FOR TREATING CONDITIONS ASSOCIATED WITH CERAMIDE BIOSYNTHESIS” (priority 2007, published 2012).

Entries after “also recorded” stand apart in the source; their conditions may differ. Read-outs that look alike come from different tables or passages of the source.

Test [1] concerns mice. Format: in vivo. The conditions noted are these: for % MPE for acute morphine: acute morphine 3 mg/kg s.c. on day five.
In test [2] the test system is ceramide. Kind of test: ceramide in spinal cord dorsal horn by immunohistochemistry and ESI-MS/MS (Example 1). The class given is in vivo, mice.
Test [3] concerns mice. The class given is in vivo, male CD-1 mice.
Another test deals with ceramide synthase. The experiment in a line: ceramide synthase activity in spinal cord homogenates. Format: in vivo, mice. The method, then:
About 60 to 80 mg of spinal cord homogenates were incubated with [^3H]-palmytic acid (2.5 μCi/ml, GE Healthcare, England) for one hour. Lipids were extracted with ice-cold methanol containing 2% acetic acid and 5% chloroform and resolved using thin-layer chromatography. Lipids co-migrating with standards were scraped and quantified by […] counting as described elsewhere (Castillo et al., 2007).

The next test relates to peroxynitrite. Kind of test: 3-nitrotyrosine (NT) staining in dorsal horn as marker of peroxynitrite. Format: in vivo, mice. An excerpt: . Detection of NT in this setting can therefore be reliably used as marker of peroxynitrite. […]; FIG. 8c), evidence of the contribution of ceramide in the production of spinal peroxynitrite.
Test [4] relates to manganese superoxide dismutase (MnSOD). Kind of test: MnSOD nitration by immunoprecipitation and western blot. Format: in vivo, mice. The method, then: Animals were rapidly sacrificed (<1 min) in a CO2 chamber and the dorsal portion of the spinal cord lumbar region enlargement removed and stored at −80° C. until used. Cytosolic and nuclear extracts were prepared as previously described (Bethea et al., 1998), with minor modifications. Tissues from each mouse were suspended in extraction Buffer A (0.2 mM PMSF, […], 20 μM leupeptin, 1 mM sodium orthovanadate), homogenized for two minutes, and centrifuged at 1,000×g for ten minutes at 4° C. Supernatants were collected as the cytosolic fraction. […] The levels of IκB-α, phospho-NF-κB p65 (serine 536), were quantified in cytosolic fraction from spinal cord tissue, while NF-κB p65 levels were quantified in nuclear fraction. […] Manganese superoxide dismutase (MnSOD) nitration was determined with western blot analysis of immunoprecipitated protein complex in total lysates using antibodies specific to these proteins. […] The relative expression of the protein levels as the band density for IκB-α (˜37 kDa), phospho NF-κB (65 kDa), NF-κB p65 (75 kDa), MnSOD (˜29 kDa), GFAP (˜50 kDa), and Iba1(˜17 kDa) was quantified by scanning of the X-ray films with GS-700 Imaging Densitometer (BIO-RAD U.S.A.) and a computer program (Molecular Analyst, IBM).
(In general: Immunoblotting shows a protein as a band on a membrane.)

A further test deals with GFAP. Kind of test: spinal expression of GFAP (astrocyte activation). Format: in vivo, mice. The conditions noted are these: for GFAP immunoreactivity in superficial layers of the dorsal horn: micrographs. The method, then: Animals were rapidly sacrificed (<1 min) in a CO2 chamber and the dorsal portion of the spinal cord lumbar region enlargement removed and stored at −80° C. until used. Cytosolic and nuclear extracts were prepared as previously described (Bethea et al., 1998), with minor modifications. Tissues from each mouse were suspended in extraction Buffer A (0.2 mM PMSF, […], 20 μM leupeptin, 1 mM sodium orthovanadate), homogenized for two minutes, and centrifuged at 1,000×g for ten minutes at 4° C. Supernatants were collected as the cytosolic fraction. The pellets containing nuclei were re-suspended in Buffer B (1% Triton X-100, 150 mM NaCl, 10 mM TRIS-HCl pH 7.4, 1 mM EGTA, 1 mM EDTA, 0.2 mM PMSF, 20 μm leupeptin, 0.2 mM sodium orthovanadate). After centrifugation for thirty minutes at 15,000×g at 4° C., the supernatants were collected as nuclear extracts and then stored at […] for further analysis. The levels of IκB-α, phospho-NF-κB p65 (serine 536), were quantified in cytosolic fraction from spinal cord tissue, while NF-κB p65 levels were quantified in nuclear fraction.

A further test has as its system Iba1. The experiment in a line: spinal expression of Iba1 (microglia activation). The conditions noted are these: for Iba1 immunoreactivity in superficial layers of the dorsal horn: micrographs. The class given is in vivo, mice.
Test [5] relates to ceramide. Kind of test: immunohistochemistry for ceramide in spinal cord (Example 3).
Where [6] appears, read: morphine plus FB1 1 mg/kg/d, n=5, ±SEM.
[7] abbreviates: acute morphine in tolerant mice vs vehicle.

Consider `CCCC[C@@H](C)[C@@H](OC(=O)C[C@@H](CC(=O)O)C(=O)O)[C@H](C[C@@H](C)C[C@H](O)CCCC[C@@H](O)C[C@H](O)[C@H](C)N)OC(=O)C[C@@H](CC(=O)O)C(=O)O` [FB1, Fumonisin B1], for which the “responses to acute morphine in control groups vs control groups treated with drug” value in the test on mice [1] (Control+Drug groups, no repeated morphine) was “similar”. In the test with mice [1] (co-administration with morphine, i.p., FB1 1 mg/kg, myriocin 0.2 mg/kg, D609 40 mg/kg), the “development of antinociceptive tolerance” value is “prevented the development of antinociceptive tolerance”. Further, the “antinociceptive effects when tested alone” value in the test with mice [1] (drug alone (not shown)) was “no antinociceptive effects”. Also, in the test on ceramide [2] (co-administration of morphine with FB1 1 mg/kg), the “increase in ceramide by immunohistochemical analysis and ESI-MS/MS” value is recorded as “prevented”. For the same compound, the “% MPE for acute morphine” value in the test on mice [3] (Mor+FB1 groups, FB1 1 mg/kg/day i.p. for six days with morphine minipump) was found to be 87±4 % MPE; with mice [3] (control+FB1 groups, FB1 1 mg/kg/day i.p., saline minipump), 85±6 % MPE. For the same compound, the “increase in CS activity” value in the test with ceramide synthase (co-administration of morphine with FB1 1 mg/kg/d, n=10) is given as “attenuated as expected the increase in CS activity”. For the same compound, the “appearance of NT staining” value with peroxynitrite (co-administration of morphine with FB1 1 mg/kg/d) is recorded as “blocked”. Moreover, in test [4] (setting [6]), the “post-translational nitration of MnSOD” value worked out at 350±45 densitometry units. Further, in the test on GFAP (1 mg/kg/d of FB1 with morphine), the “GFAP immunoreactivity in superficial layers of the dorsal horn” value is “blocked”. Also, in the test with GFAP (setting [6]), the “spinal expression of GFAP (activation of astrocytes)” value was determined as 4627.38±0.483 densitometry units. In the test on Iba1 (1 mg/kg/d of FB1 with morphine), the “Iba1 immunoreactivity in superficial layers of the dorsal horn” value is recorded as “blocked”. Besides, in the test with Iba1 (morphine plus FB1 1 mg/kg/d, n=5), the “spinal expression of IBa1 (activation of microglial cell)” value was found to be 275.53±0.053 densitometry units. In addition, in the test on ceramide [5] (co-administered with morphine, FB1 1 mg/kg/d, myriocin 0.4 mg/kg/d, D609 40 mg/kg/d), the ceramide immunostaining result is recorded as “attenuated; also recorded: abolished the presence of positive staining for ceramide”.
Take `CN1CC[C@]23c4c5ccc(O)c4O[C@H]2[C@@H](O)C=C[C@H]3[C@H]1C5` [morphine]: the “% MPE for acute morphine” value in the test with mice [1] (Control group (saline over four days)) is reported as 93±8 % MPE; with mice [1] (Morphine group (morphine 2×10 mg/kg/day over four days)), 20±14 % MPE; in the test with mice [3] (Morphine groups (morphine 50 mg/kg by osmotic minipump), acute morphine 3 mg/kg i.p., tail flick) it was 15±4 % MPE; in the test with mice [3] (control groups (saline minipump), acute morphine 3 mg/kg i.p., tail flick, day six), 90±5 % MPE. The compound also registered an antinociceptive effect in the test with mice [1] (acute morphine 3 mg/kg subcutaneously, forty minutes after dose, hot plate 52° C., n=8) of 99±2%. For the same compound, the “ceramide in dorsal horn, immunohistochemistry with anti-ceramide antibody” value with ceramide [2] (repeated administration of morphine over four days) was “appearance of ceramide in the superficial layers of the dorsal horn”. Moreover, the “predominant ceramide species increased in dorsal horn tissues, ESI-MS/MS” value in the test with ceramide [2] (repeated morphine administration, n=3) was 18:0, 20:0, and 22:0 ceramide. The “enzymatic activity of ceramide synthase (CS)” value in the test on ceramide synthase (repeated morphine, tolerant mice vs vehicle) is “increased enzymatic activity”. Besides, in the test on peroxynitrite (morphine tolerant mice), the “NT staining in dorsal horn” value is reported as “appearance of NT staining in tolerant mice”. Besides, in [4] (mouse, in vivo), the “post-translational nitration of MnSOD” value turned out to be 850±70 densitometry units. Also, the “GFAP immunoreactivity in superficial layers of the dorsal horn” value in the test with GFAP (setting [7]) is on record as “increased”. The “spinal expression of GFAP” value with GFAP (morphine group, n=5) turned out to be 7343.95±0.527 densitometry units. Also, the “Iba1 immunoreactivity in superficial layers of the dorsal horn” value with Iba1 (setting [7]) was “increased”. In the test with Iba1 (morphine group, n=5, ±SEM), the “spinal expression of IBa1” value came to 541.29±0.073 densitometry units. For the same compound, the “ceramide staining in dorsal horn, immunohistochemistry” value in the test with ceramide [5] (repeated morphine, day five) is “appearance of ceramide in the superficial layers of the dorsal horn; also recorded: marked appearance of positive staining for ceramide”.
